The values below come from patent publication US10507184B2, “Implantable Naltrexone tablets” (RUSAN PHARMA LIMITED, priority 2015, dated 2019).

The structures appear in SMILES notation.

A short description of this series: Drug solubility versus pH. Particulars: pH above 7.4. The class given is physicochemical. The text has this:
Media provides sink conditions for maximum release of the drug from pharmaceutical system as well as aids in solubilization of drug for release; therefore, proper selection of media can be important. Media of different pH was used for selection of the correct media for dissolution of the naltrexone implantable tablets. The following five dissolution media were used from pH ranging from 1.2 to 7.4. The pH above 7.4 was not used, as the drug solubility is reduced at pH above 7.4.

As to `O=C1CC[C@@]2(O)[C@H]3Cc4ccc(O)c5c4[C@@]2(CCN3CC2CC2)[C@H]1O5` [Naltrexone, 17-(cyclopropylmethyl)-4,5α-epoxy-3,14-dihydroxymorphinan-6-one], the drug solubility result is given as “reduced”.
